Measurements as given in ChEMBL document CHEMBL1144609, “N-Hydroxythiosemicarbazones: synthesis and in vitro antitubercular activity” (Bioorg Med Chem Lett, 2007).
Values after ≈ are worked out from the molar mass of the structure shown.

Columns and labels:
[1] = test system: Mycobacterium tuberculosis; assay: Antimycobacterial activity against Mycobacterium tuberculosis H37Rv by agar dilution method; type: functional
Vero = assay: Cytotoxicity against Vero cells after 72 hrs by MTT assay; type: cell-based; conditions: Chlorocebus sabaeus
[2] = Selectivity index, ratio of IC50 for Vero cells to MIC for Mycobacterium tuberculosis H37Rv; type: functional

Compound	MIC [1] [µM]	IC50 (Vero) [µM]	Selectivity index [2]
CN(C)c1ccc(/C=N/NC(=S)NO)cc1	52.5 (≈ 12.5 µg/mL)	–	–
COc1ccc(/C=N/NC(=S)NO)cc1	14.9 (≈ 3.37 µg/mL)	–	–
Cc1ccc(/C=N/NC(=S)NO)cc1	13 (≈ 2.71 µg/mL)	–	–
ONC(=S)N/N=C/c1ccc(Cl)cc1	13 (≈ 2.99 µg/mL)	–	–
ONC(=S)N/N=C/c1ccccc1O	29.6 (≈ 6.25 µg/mL)	–	–
O=[N+]([O-])c1ccc(/C=N/NC(=S)NO)cc1	6.49 (≈ 1.56 µg/mL)	> 260	–
C/C(=N\NC(=S)NO)c1ccccc1	14.9 (≈ 3.13 µg/mL)	–	–
C/C(=N\NC(=S)NO)c1ccc(C)cc1	6.98 (≈ 1.56 µg/mL)	> 280	–
C/C(=N\NC(=S)NO)c1ccc(Cl)cc1	3.2 (≈ 0.78 µg/mL)	> 256	–
C/C(=N\NC(=S)NO)c1ccc([N+](=O)[O-])cc1	0.78 (≈ 0.198 µg/mL)	> 246	–
ONC(=S)N/N=C(\c1ccccc1)c1ccc(Br)cc1	0.28 (≈ 0.0981 µg/mL)	> 178	>625
O=C1Nc2ccc(F)cc2/C1=N/NC(=S)NO	24.6 (≈ 6.25 µg/mL)	–	–
COc1cc(/C=N/NC(=S)NO)ccc1O	27.2 (≈ 6.57 µg/mL)	–	–
ONC(=S)N/N=C/c1ccccc1	64 (≈ 12.5 µg/mL)	–	–
ONC(=S)N/N=C/c1ccc(O)cc1	29.6 (≈ 6.25 µg/mL)	–	–
O=[N+]([O-])c1ccccc1/C=N/NC(=S)NO	6.49 (≈ 1.56 µg/mL)	> 260	–
C/C(=N\NC(=S)NO)c1ccccc1O	13.9 (≈ 3.13 µg/mL)	–	–
O=C1Nc2ccccc2/C1=N/NC(=S)NO	64 (≈ 15.1 µg/mL)	–	–
CC[C@@H](CO)NCCN[C@@H](CC)CO [ETHAMBUTOL]	15.3 (≈ 3.13 µg/mL)	> 306	–
NNC(=O)c1ccncc1 [ISONIAZID]	0.72 (≈ 0.0987 µg/mL)	> 456	–
CO[C@H]1/C=C/O[C@@]2(C)Oc3c(C)c(O)c4c(O)c(c(/C=N/N5CCN(C)CC5)c(O)c4c3C2=O)NC(=O)/C(C)=C\C=C\[C@H](C)[C@H](O)[C@@H](C)[C@@H](O)[C@@H](C)[C@H](OC(C)=O)[C@@H]1C [RIFAMPIN]	0.24 (≈ 0.198 µg/mL)	> 75.9	–
